Data published in PubChem BioAssay AID1963828 (Molecular Pharmacology Branch, DTP, NCI, 2024).

Test system: 991263-137-R1-J2-PDC complex spheroid viability
Experiment: Anticancer human tumor 991263-137-R1-J2-PDC patient-derived colon adenocarcinoma cell line growth inhibition [POLQ]
Conditions: for IC50: curve of first compound; for viability, T/C: stronger effect = lower value
In short: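 Three-cell-type spheroids modelling solid tumor plus stroma served as the readout system; POL inhibitors were tested individually and in combination, concentration ranges set by clinical Cmax where known.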

[1] = second compound 0.0316 µM, first compound 0.0316 µM
[2] = second compound 0.0316 µM, first compound 0.1 µM
[3] = second compound 0.0316 µM, first compound 0.316 µM
[4] = second compound 0.0316 µM, first compound 1 µM
[5] = second compound 0.0316 µM, first compound 3.16 µM
[6] = second compound 0.0316 µM, first compound 10 µM
[7] = second compound 0.1 µM, first compound 0.0316 µM
[8] = second compound 0.1 µM, first compound 0.1 µM
[9] = second compound 0.1 µM, first compound 0.316 µM
[10] = second compound 0.1 µM, first compound 1 µM
[11] = second compound 0.1 µM, first compound 3.16 µM
[12] = second compound 0.1 µM, first compound 10 µM
[13] = second compound 0.316 µM, first compound 0.0316 µM
[14] = second compound 0.316 µM, first compound 0.1 µM
[15] = second compound 0.316 µM, first compound 0.316 µM
[16] = second compound 0.316 µM, first compound 1 µM
[17] = second compound 0.316 µM, first compound 3.16 µM
[18] = second compound 0.316 µM, first compound 10 µM
[19] = second compound 1 µM, first compound 0.0316 µM
[20] = second compound 1 µM, first compound 0.1 µM
[21] = second compound 1 µM, first compound 0.316 µM
[22] = second compound 1 µM, first compound 1 µM
[23] = second compound 1 µM, first compound 3.16 µM
[24] = second compound 1 µM, first compound 10 µM
[25] = second compound 3.16 µM, first compound 0.0316 µM
[26] = second compound 3.16 µM, first compound 0.1 µM
[27] = second compound 3.16 µM, first compound 0.316 µM
[28] = second compound 3.16 µM, first compound 1 µM
[29] = second compound 3.16 µM, first compound 3.16 µM
[30] = second compound 3.16 µM, first compound 10 µM
[31] = second compound 10 µM, first compound 0.0316 µM
[32] = second compound 10 µM, first compound 0.1 µM
[33] = second compound 10 µM, first compound 0.316 µM
[34] = second compound 10 µM, first compound 1 µM
[35] = second compound 10 µM, first compound 3.16 µM
[36] = second compound 10 µM, first compound 10 µM
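Also: spheroids exposed to compounds for 7 days before readout.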
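For viability, T/C in this document: 100% = DMSO vehicle control viability.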

## CC1COCCN1c1cc(-c2ccnn2C)c2ccnc(-c3ccn[nH]3)c2n1 (centres undefined) + Cc1cccc(N(C)C(=O)C2C(O)CCN2c2nc(C)cc(C(F)(F)F)c2C#N)c1
Second compound 0.0316 µM
  IC50: 0.948 µM
Second compound 0.1 µM
  IC50: 1 µM
Second compound 0.316 µM
  IC50: 0.77 µM
Second compound 1 µM
  IC50: 0.99 µM
Second compound 3.16 µM
  IC50: 1.43 µM
Second compound 10 µM
  IC50: 0.851 µM
[1]
  viability, T/C: 99.7%
[2]
  viability, T/C: 96.8%
[3]
  viability, T/C: 81.5%
[4]
  viability, T/C: 47.6%
[5]
  viability, T/C: 36.2%
[6]
  viability, T/C: 29.4%
[7]
  viability, T/C: 125%
[8]
  viability, T/C: 97.6%
[9]
  viability, T/C: 81.8%
[10]
  viability, T/C: 45.2%
[11]
  viability, T/C: 35.7%
[12]
  viability, T/C: 33.5%
[13]
  viability, T/C: 94.4%
[14]
  viability, T/C: 110%
[15]
  viability, T/C: 75.4%
[16]
  viability, T/C: 44.3%
[17]
  viability, T/C: 35.1%
[18]
  viability, T/C: 28.8%
[19]
  viability, T/C: 90.3%
[20]
  viability, T/C: 99.3%
[21]
  viability, T/C: 64.3%
[22]
  viability, T/C: 53.3%
[23]
  viability, T/C: 39.3%
[24]
  viability, T/C: 30.7%
[25]
  viability, T/C: 88.8%
[26]
  viability, T/C: 114%
[27]
  viability, T/C: 89%
[28]
  viability, T/C: 58.2%
[29]
  viability, T/C: 32.9%
[30]
  viability, T/C: 31.6%
[31]
  viability, T/C: 103%
[32]
  viability, T/C: 104%
[33]
  viability, T/C: 78.3%
[34]
  viability, T/C: 46%
[35]
  viability, T/C: 34.9%
[36]
  viability, T/C: 32.1%

## COc1ccc([C@@H](O)c2cc(-c3ncnc4cc(N5CCOCC5)ccc34)c(F)cc2Cl)nn1 + Cc1cccc(N(C)C(=O)C2C(O)CCN2c2nc(C)cc(C(F)(F)F)c2C#N)c1
Second compound 0.0316 µM
  IC50: 2.6 µM
Second compound 0.1 µM
  IC50: 5.78 µM
Second compound 0.316 µM
  IC50: 5.97 µM
Second compound 1 µM
  IC50: 6.2 µM
Second compound 3.16 µM
  IC50: 5.68 µM
Second compound 10 µM
  IC50: 3.76 µM
[1]
  viability, T/C: 101%
[2]
  viability, T/C: 88.1%
[3]
  viability, T/C: 93.3%
[4]
  viability, T/C: 110%
[5]
  viability, T/C: 40.1%
[6]
  viability, T/C: 27.1%
[7]
  viability, T/C: 116%
[8]
  viability, T/C: 104%
[9]
  viability, T/C: 98.1%
[10]
  viability, T/C: 88%
[11]
  viability, T/C: 76.4%
[12]
  viability, T/C: 29.3%
[13]
  viability, T/C: 103%
[14]
  viability, T/C: 103%
[15]
  viability, T/C: 84.9%
[16]
  viability, T/C: 87.5%
[17]
  viability, T/C: 68.9%
[18]
  viability, T/C: 34.9%
[19]
  viability, T/C: 99.5%
[20]
  viability, T/C: 114%
[21]
  viability, T/C: 75.2%
[22]
  viability, T/C: 89%
[23]
  viability, T/C: 76.3%
[24]
  viability, T/C: 33.1%
[25]
  viability, T/C: 97.5%
[26]
  viability, T/C: 92.8%
[27]
  viability, T/C: 77.9%
[28]
  viability, T/C: 79.5%
[29]
  viability, T/C: 75.5%
[30]
  viability, T/C: 29.4%
[31]
  viability, T/C: 85.3%
[32]
  viability, T/C: 117%
[33]
  viability, T/C: 86%
[34]
  viability, T/C: 90.5%
[35]
  viability, T/C: 53.2%
[36]
  viability, T/C: 30%
